Values joined by “and” are separate entries in the source; they are usually repeats but may differ in a detail not shown here. Identical values can stand only once. Numbers after ± are expanded uncertainties.
Test: molar heat capacity at constant pressure
Details: 101.33 kPa, Crystal, Small (less than 1 g) adiabatic calorimetry

O.O.O.O.O.O=S(=O)([O-])[O-].[Cu+2] [copper(II) sulfate pentahydrate]
Details	molar heat capacity at constant pressure
37.11 K	32.81 ± 0.37 J/K/mol
37.27 K	32.75 ± 0.26 J/K/mol
37.57 K	33.3 ± 0.26 J/K/mol
37.61 K	33.52 ± 0.26 J/K/mol
38.25 K	34.37 ± 0.27 J/K/mol
38.34 K	34.7 ± 0.27 J/K/mol
38.38 K	34.84 ± 0.38 J/K/mol
38.55 K	34.93 ± 0.27 J/K/mol
39.23 K	35.95 ± 0.28 J/K/mol
39.54 K	36.51 ± 0.28 J/K/mol
40 K	37.15 ± 0.28 J/K/mol
40.22 K	37.51 ± 0.28 J/K/mol
40.31 K	37.77 ± 0.28 J/K/mol
40.35 K	37.93 ± 0.41 J/K/mol
41.2 K	39.02 ± 0.29 J/K/mol
42.19 K	40.35 ± 0.29 J/K/mol
42.29 K	40.63 ± 0.3 J/K/mol
42.32 K	41.04 ± 0.42 J/K/mol
43.17 K	41.93 ± 0.3 J/K/mol
44.16 K	43.29 ± 0.31 J/K/mol
44.27 K	43.38 ± 0.31 J/K/mol
44.29 K	44.04 ± 0.45 J/K/mol
45 K	44.39 ± 0.31 J/K/mol
45.14 K	44.61 ± 0.31 J/K/mol
46.12 K	45.87 ± 0.32 J/K/mol
46.25 K	46.08 ± 0.32 J/K/mol
46.27 K	47.03 ± 0.46 J/K/mol
47.11 K	47.24 ± 0.32 J/K/mol
48.1 K	48.62 ± 0.33 J/K/mol
48.23 K	48.95 ± 0.33 J/K/mol
48.24 K	49.93 ± 0.48 J/K/mol
49.08 K	50.18 ± 0.34 J/K/mol
50 K	51.93 ± 0.34 J/K/mol
50.07 K	52.01 ± 0.34 J/K/mol
50.21 K	52.31 ± 0.35 J/K/mol
50.22 K	52.88 ± 0.5 J/K/mol
51.06 K	53.89 ± 0.35 J/K/mol
52.04 K	55.62 ± 0.36 J/K/mol
52.19 K	55.66 ± 0.36 J/K/mol and 55.74 ± 0.52 J/K/mol
53.03 K	57.23 ± 0.37 J/K/mol
54.02 K	58.82 ± 0.37 J/K/mol
54.17 K	58.74 ± 0.54 J/K/mol
54.18 K	58.73 ± 0.37 J/K/mol
55 K	60.26 ± 0.38 J/K/mol and 60.19 ± 0.38 J/K/mol
55.99 K	61.63 ± 0.38 J/K/mol
56.15 K	61.82 ± 0.55 J/K/mol
56.16 K	61.65 ± 0.38 J/K/mol
56.98 K	62.69 ± 0.39 J/K/mol
57.97 K	63.82 ± 0.39 J/K/mol
58.14 K	64.89 ± 0.57 J/K/mol
58.15 K	64.47 ± 0.39 J/K/mol
58.96 K	65.23 ± 0.39 J/K/mol
59.95 K	66.92 ± 0.4 J/K/mol
60 K	66.98 ± 0.4 J/K/mol
60.12 K	67.94 ± 0.59 J/K/mol
60.14 K	67.3 ± 0.41 J/K/mol
60.93 K	68.42 ± 0.41 J/K/mol
61.92 K	69.94 ± 0.41 J/K/mol
62.11 K	70.89 ± 0.6 J/K/mol
62.13 K	70.09 ± 0.42 J/K/mol
62.92 K	71.4 ± 0.42 J/K/mol
63.91 K	72.71 ± 0.42 J/K/mol
64.1 K	73.66 ± 0.62 J/K/mol
64.13 K	72.85 ± 0.42 J/K/mol
64.9 K	74 ± 0.43 J/K/mol
65 K	74.12 ± 0.43 J/K/mol
65.89 K	75.34 ± 0.44 J/K/mol
66.1 K	76.33 ± 0.63 J/K/mol
66.12 K	75.65 ± 0.43 J/K/mol
66.89 K	76.71 ± 0.44 J/K/mol
67.88 K	78.07 ± 0.45 J/K/mol
68.09 K	78.22 ± 0.45 J/K/mol and 78.9 ± 0.65 J/K/mol
68.88 K	79.31 ± 0.45 J/K/mol
69.87 K	80.54 ± 0.45 J/K/mol
70 K	80.85 ± 0.46 J/K/mol and 80.84 ± 0.45 J/K/mol
70.08 K	81.47 ± 0.66 J/K/mol
71.87 K	83.38 ± 0.46 J/K/mol
72.45 K	84.21 ± 0.47 J/K/mol
72.58 K	84.91 ± 0.67 J/K/mol
74.88 K	87.18 ± 0.48 J/K/mol
75 K	87.24 ± 0.48 J/K/mol
75.45 K	87.98 ± 0.48 J/K/mol
75.59 K	88.72 ± 0.69 J/K/mol
77.89 K	90.83 ± 0.49 J/K/mol
77.95 K	91.36 ± 0.7 J/K/mol
78.48 K	91.71 ± 0.49 J/K/mol
79.11 K	92.21 ± 0.49 J/K/mol
79.15 K	92.84 ± 0.71 J/K/mol
79.36 K	93.03 ± 0.71 J/K/mol
80 K	93.33 ± 0.5 J/K/mol
80.16 K	93.95 ± 0.72 J/K/mol
80.92 K	94.52 ± 0.51 J/K/mol
81.18 K	95.24 ± 0.72 J/K/mol
81.51 K	95.36 ± 0.5 J/K/mol
82.2 K	96.42 ± 0.73 J/K/mol
82.48 K	96.2 ± 0.51 J/K/mol
82.91 K	97.32 ± 0.73 J/K/mol
83.22 K	97.59 ± 0.73 J/K/mol
84.24 K	98.9 ± 0.74 J/K/mol
85 K	99.12 ± 0.52 J/K/mol
85.26 K	100.17 ± 0.74 J/K/mol
85.52 K	99.69 ± 0.52 J/K/mol
85.95 K	100.9 ± 0.74 J/K/mol
86.12 K	100.4 ± 0.52 J/K/mol
86.28 K	101.27 ± 0.74 J/K/mol
87.26 K	101.63 ± 0.53 J/K/mol
87.3 K	102.49 ± 0.75 J/K/mol
88.08 K	103.41 ± 0.76 J/K/mol
88.28 K	102.83 ± 0.53 J/K/mol
88.33 K	103.67 ± 0.76 J/K/mol
88.57 K	103.19 ± 0.53 J/K/mol
89 K	104.46 ± 0.76 J/K/mol
89.31 K	103.96 ± 0.54 J/K/mol
89.36 K	104.73 ± 0.76 J/K/mol
89.57 K	104.25 ± 0.53 J/K/mol
90 K	104.7 ± 0.5 J/K/mol
90.33 K	105.21 ± 0.53 J/K/mol
90.39 K	105.94 ± 0.77 J/K/mol
90.76 K	106.39 ± 0.77 J/K/mol
91.36 K	106.32 ± 0.54 J/K/mol
91.43 K	107.16 ± 0.76 J/K/mol
91.62 K	106.68 ± 0.54 J/K/mol
91.84 K	106.75 ± 0.54 J/K/mol
92.05 K	107.96 ± 0.77 J/K/mol
92.39 K	107.49 ± 0.54 J/K/mol
92.47 K	108.25 ± 0.77 J/K/mol
93.36 K	109.28 ± 0.78 J/K/mol
93.42 K	108.59 ± 0.55 J/K/mol
93.5 K	109.47 ± 0.78 J/K/mol
93.89 K	109.02 ± 0.54 J/K/mol
94.46 K	109.82 ± 0.55 J/K/mol
94.55 K	110.67 ± 0.78 J/K/mol
94.68 K	110.09 ± 0.55 J/K/mol
95 K	110.3 ± 0.5 J/K/mol
95.12 K	111.38 ± 0.78 J/K/mol
95.49 K	110.97 ± 0.55 J/K/mol
95.59 K	111.73 ± 0.78 J/K/mol
95.94 K	111.25 ± 0.55 J/K/mol
95.97 K	112.11 ± 0.79 J/K/mol
96.53 K	111.9 ± 0.55 J/K/mol
96.63 K	112.87 ± 0.79 J/K/mol
97.56 K	113.1 ± 0.56 J/K/mol
97.68 K	113.95 ± 0.79 J/K/mol
97.74 K	113.41 ± 0.56 J/K/mol
97.98 K	113.44 ± 0.56 J/K/mol
98.19 K	114.68 ± 0.79 J/K/mol
98.58 K	114.96 ± 0.8 J/K/mol
98.6 K	114.41 ± 0.56 J/K/mol
98.72 K	115.17 ± 0.8 J/K/mol
99.65 K	115.37 ± 0.56 J/K/mol
99.77 K	116.31 ± 0.8 J/K/mol
100 K	115.7 ± 0.6 J/K/mol
100.03 K	115.65 ± 0.56 J/K/mol
100.69 K	116.49 ± 0.57 J/K/mol
100.81 K	117.42 ± 0.8 J/K/mol
100.82 K	116.62 ± 0.57 J/K/mol
101.2 K	117.71 ± 0.8 J/K/mol
101.27 K	117.92 ± 0.8 J/K/mol

Reference: the NIST ThermoML archive (doi:10.1016/j.jct.2017.03.026)
